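Test compounds were applied to cells in 96-well plates for 48 hours at 5 doses. GI50: concentration for 50% inhibition of growth.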 Active and inactive are the calls of the source. No stated cut-off is given here; in the data, active = GI50 up to about 1.1 µM and inactive = higher.
Columns and labels:
Assay in all cases: inhibition of tumour cell growth, NCI panel, 48 h
[1] = tested on: CCRF-CEM
[2] = tested on: COLO 205
[3] = tested on: EKVX
[4] = tested on: HCT-15
[5] = tested on: HT-29
[6] = tested on: IGROV-1
[7] = tested on: KM-20L2
[8] = tested on: KM12
[9] = tested on: MOLT-4
[10] = tested on: NCI-H23
[11] = tested on: OVCAR-8
[12] = tested on: SF-295
[13] = tested on: SK-MEL-28
[14] = tested on: SK-MEL-2
[15] = tested on: SN12C
[16] = tested on: HOP-92
[17] = tested on: NCI-H522
[18] = tested on: PC-3
[19] = tested on: SK-OV-3
[20] = tested on: T47D

| SMILES | GI50 [1] | GI50 [2] | GI50 [3] | GI50 [4] | GI50 [5] | GI50 [6] | GI50 [7] | GI50 [8] | GI50 [9] | GI50 [10] | GI50 [11] | GI50 [12] | GI50 [13] | GI50 [14] | GI50 [15] | GI50 [16] | GI50 [17] | GI50 [18] | GI50 [19] | GI50 [20] |
| --- | --- | --- | --- | --- | --- | --- | --- | --- | --- | --- | --- | --- | --- | --- | --- | --- | --- | --- | --- | --- |
| O=C(O)CCSC(=O)Nc1cccc(F)c1 | > 100 µM (inactive) | > 100 µM (inactive) | 3.55 µM (inactive) | > 100 µM | > 100 µM (inactive) | > 10 µM (inactive) | > 100 µM (inactive) | > 100 µM (inactive) | > 100 µM (inactive) | > 100 µM (inactive) | > 100 µM (inactive) | > 100 µM (inactive) | > 100 µM (inactive) | > 100 µM (inactive) | > 100 µM (inactive) |  |  |  |  |  |
| COc1ccc2c(c1)CCc1c-2[nH]c2ccc(OC)cc12 | 14.4 µM (inactive) | > 100 µM (inactive) | > 100 µM (inactive) | > 100 µM | 7.21 µM (inactive) | > 100 µM (inactive) |  | > 100 µM (inactive) | > 100 µM (inactive) | > 100 µM (inactive) | > 100 µM (inactive) | > 100 µM (inactive) | > 100 µM (inactive) | > 100 µM (inactive) | > 100 µM (inactive) | > 100 µM (inactive) | > 100 µM (inactive) | > 100 µM (inactive) | > 100 µM (inactive) | 20.8 µM (inactive) |
| C/C(=N\Nc1nc2ccccc2[nH]1)c1ccncn1 | 0.0776 µM (active) | 0.128 µM (active) | 0.133 µM (active) | 0.161 µM | 0.0818 µM (active) | 0.103 µM (active) |  | 0.27 µM (active) | 0.17 µM (active) | 0.0973 µM (active) | 0.124 µM (active) | 0.115 µM (active) | 0.396 µM (active) | 0.617 µM (active) | 0.275 µM (active) | 0.0715 µM (active) | 0.104 µM (active) | 2.61 µM (inactive) | 0.49 µM (active) | 0.103 µM (active) |
| Cc1ccc(Nc2ncnc3sc(SCc4ccccc4)nc23)cc1 | > 100 µM (inactive) | > 100 µM (inactive) | > 100 µM (inactive) | 57.7 µM | 36.1 µM (inactive) | > 100 µM (inactive) |  | > 100 µM (inactive) | > 100 µM (inactive) | > 100 µM (inactive) | > 100 µM (inactive) | 74.8 µM (inactive) | > 100 µM (inactive) | > 100 µM (inactive) | > 100 µM (inactive) | 31.3 µM (inactive) | > 100 µM (inactive) | 90.6 µM (inactive) | > 100 µM (inactive) | 84.7 µM (inactive) |
| CC1SC2(CCCCC2)N(NC(=O)CSc2nc3ccc(Cl)cc3c(=O)n2-c2ccccc2)C1=O (centres undefined) | 34.4 µM (inactive) | 13.8 µM (inactive) | 42.5 µM (inactive) | 18.7 µM | 16.6 µM (inactive) | 12 µM (inactive) |  | 30.1 µM (inactive) | 7.53 µM (inactive) | 23.2 µM (inactive) | 26.1 µM (inactive) | 18.5 µM (inactive) | 32.6 µM (inactive) | 17.3 µM (inactive) | 17.5 µM (inactive) | 22.3 µM (inactive) | 18.8 µM (inactive) | 23.2 µM (inactive) | 33.3 µM (inactive) | 27.3 µM (inactive) |
| Sc1nnc(C(c2ccccc2)c2ccccc2)[nH]1 | > 100 µM (inactive) | > 100 µM (inactive) | > 100 µM (inactive) | > 100 µM | > 100 µM (inactive) | > 100 µM (inactive) | > 100 µM (inactive) | > 100 µM (inactive) | > 100 µM (inactive) | > 100 µM (inactive) | > 100 µM (inactive) | > 100 µM (inactive) | > 100 µM (inactive) | > 100 µM (inactive) | > 100 µM (inactive) |  | 53.2 µM (inactive) |  | > 100 µM (inactive) |  |
| CCOC(=O)c1cc([N+](=O)[O-])c(Sc2ncnc3nc[nH]c23)c([N+](=O)[O-])c1 | 1.27 µM (inactive) | 1.66 µM (inactive) | 4.92 µM (inactive) | 2.48 µM | 3.06 µM (inactive) | 1.26 µM (inactive) |  | 9.2 µM (inactive) | 1.87 µM (inactive) | 7.13 µM (inactive) | 4.74 µM (inactive) | 3.36 µM (inactive) | 14.3 µM (inactive) | 8.89 µM (inactive) | 14.1 µM (inactive) | 1.03 µM (active) | 0.643 µM (active) | 9.82 µM (inactive) | 0.308 µM (active) | 2.96 µM (inactive) |
| C=CC(C)(C)/C=C/c1ccc(O)cc1 | 39.3 µM (inactive) | 35.5 µM (inactive) | 45.3 µM (inactive) | 39.1 µM | 38.2 µM (inactive) | 44 µM (inactive) |  | 39.3 µM (inactive) | 38.5 µM (inactive) | 31.8 µM (inactive) | 39.7 µM (inactive) | 27 µM (inactive) | 35.9 µM (inactive) | 23.4 µM (inactive) | 34.5 µM (inactive) | 47 µM (inactive) | 34.4 µM (inactive) | 28 µM (inactive) | 49.7 µM (inactive) | 20 µM (inactive) |
| COC(=O)c1ccccc1C1CN=NC12Cc1c(C)c3c(c(C)c1C2=O)CCC3 (centres undefined) | > 100 µM (inactive) | > 100 µM (inactive) | > 100 µM (inactive) | > 100 µM | 40.1 µM (inactive) | > 100 µM (inactive) |  | > 100 µM (inactive) | > 100 µM (inactive) | 54.6 µM (inactive) | > 100 µM (inactive) | 33.1 µM (inactive) | > 100 µM (inactive) | > 100 µM (inactive) | > 100 µM (inactive) | 22.5 µM (inactive) | 33.7 µM (inactive) | > 100 µM (inactive) | > 100 µM (inactive) | > 100 µM (inactive) |
| Cn1c(=S)c2nc(SCCN3C(=O)c4ccccc4C3=O)[nH]c2n(C)c1=O | 17.3 µM (inactive) | > 100 µM (inactive) | > 100 µM (inactive) | > 100 µM | > 100 µM (inactive) | 30.1 µM (inactive) |  | > 100 µM (inactive) | 88.3 µM (inactive) | > 100 µM (inactive) | > 100 µM (inactive) | > 100 µM (inactive) | > 100 µM (inactive) | > 100 µM (inactive) | > 100 µM (inactive) | > 100 µM (inactive) | 5.27 µM (inactive) | > 100 µM (inactive) | > 100 µM (inactive) | > 100 µM (inactive) |
| O=C(NN1C(=O)/C(=C/c2ccc(Cl)cc2)N=C1c1ccccc1)c1c(Cl)c(Cl)c(Cl)c(Cl)c1-c1nc2ccccc2[nH]1 | 12.1 µM (inactive) | 22.6 µM (inactive) | 19.4 µM (inactive) | 9.62 µM | 27.4 µM (inactive) | 2.47 µM (inactive) |  | 4.15 µM (inactive) | 6.93 µM (inactive) | 13.4 µM (inactive) | 27.9 µM (inactive) | < 0.01 µM (active) | 20.3 µM (inactive) | 18.6 µM (inactive) | 24.1 µM (inactive) | 11.6 µM (inactive) | 18.2 µM (inactive) | 20.2 µM (inactive) | < 0.01 µM (active) | 0.582 µM (active) |
| CN(C)c1ccc(C(c2ccc(Cl)cc2)c2ccc(N(C)C)cc2)cc1 | 72.9 µM (inactive) | 34.7 µM (inactive) | 62.5 µM (inactive) | > 100 µM | > 100 µM (inactive) | > 100 µM (inactive) |  | > 100 µM (inactive) | > 100 µM (inactive) | > 100 µM (inactive) | 99.1 µM (inactive) | > 100 µM (inactive) | > 100 µM (inactive) | > 100 µM (inactive) | > 100 µM (inactive) | > 100 µM (inactive) | 28.5 µM (inactive) | > 100 µM (inactive) | > 100 µM (inactive) | 64.7 µM (inactive) |
| O=C(NCCc1ccccc1)[C@H]1CCCC[C@@H]1CCO | > 100 µM (inactive) | > 100 µM (inactive) | > 100 µM (inactive) | > 100 µM | > 100 µM (inactive) | > 100 µM (inactive) |  | > 100 µM (inactive) | > 100 µM (inactive) | > 100 µM (inactive) | > 100 µM (inactive) | > 100 µM (inactive) | > 100 µM (inactive) | > 100 µM (inactive) | > 100 µM (inactive) | > 100 µM (inactive) | > 100 µM (inactive) | > 100 µM (inactive) | > 100 µM (inactive) | > 100 µM (inactive) |
| N#CC(Nc1ccccc1)c1ccc(C(C#N)Nc2ccccc2)cc1 (centres undefined) | 5.07 µM (inactive) | 27.1 µM (inactive) | > 100 µM (inactive) | 18.2 µM | 20.8 µM (inactive) | 34.6 µM (inactive) |  | > 100 µM (inactive) | 32.2 µM (inactive) | 41.5 µM (inactive) | > 100 µM (inactive) | 40 µM (inactive) | 41.2 µM (inactive) | > 100 µM (inactive) | 46.8 µM (inactive) | 28.1 µM (inactive) | > 100 µM (inactive) | 28.8 µM (inactive) | > 100 µM (inactive) | 24.8 µM (inactive) |
| c1ccc2c(c1)Nc1nc3nonc3nc1N2 | > 100 µM (inactive) | > 100 µM (inactive) | > 100 µM (inactive) | 29.4 µM | > 100 µM (inactive) | > 100 µM (inactive) |  | > 100 µM (inactive) | > 100 µM (inactive) | > 100 µM (inactive) | > 100 µM (inactive) | > 100 µM (inactive) | > 100 µM (inactive) | > 100 µM (inactive) | > 100 µM (inactive) | > 100 µM (inactive) | > 100 µM (inactive) | > 100 µM (inactive) | > 100 µM (inactive) | > 100 µM (inactive) |
